Assay results as given in patent publication US11702417B2, “Compounds for improving mRNA splicing” (The General Hospital Corporation, priority 2015, dated 2023).

How the values were obtained:
[1] = In vivo FD mouse model: presence of compound in plasma and brain; conditions: oral gavage eight days, 1 hour after last dose
Protocol: (§1) Compound (100) was administered by oral gavage for eight days at 60 mg/kg/day, 30 mg/kg/day and 10 mg/kg/day to the mouse transgenic familial dysautonomia (FD) model. Every dosing group and the control group (vehicle) consisted of 6 mice. The mice were given food and water ad libitum, and changes in body weights were monitored on a daily basis. On the eighth day the mice were dosed for the last time and after 1 hour the mice were sacrificed and dissected. Plasma, liver, kidney, heart and brain were collected.

[2] = test system: FD (familial dysautomonia) IKBKAP minigene, exon 20 inclusion, in HEK293T cells; test: Primary splicing assay (FD IKBKAP minigene, Firefly/Renilla luciferase reporter in HEK293T); format: cell-based, human; conditions: Homo sapiens, HEK-293T, Firefly/Renilla ratio, 24 hours of treatment; for EC (maximum kinetin efficacy): HEK293T, read-out: ECk (compound concentration at which the maximum kinetin efficacy (200 μM) is reached); for Emax: max efficacy in Primary Assay, kinetin and DMSO as positive and negative controls, read-out: Emax (%)
[3] = test system: IKBKAP splicing (exon 20 inclusion) in FD fibroblasts GM04663; test: Secondary assay: IKBKAP splicing analysis by RT-PCR in FD fibroblasts GM04663; format: cell-based; conditions: Homo sapiens, FD fibroblasts GM04663, 24 hours of treatment, read-out: % exon Inclusion Normalized
IKBKAP exon 20 inclusion = test: In vivo familial dysautonomia mouse model: splicing analysis in tissues; conditions: for inclusion of exon 20 in C57BI6-FD mouse tissues (FIGS. 1A-6): 10, 30 and 60 mg/kg/day, 8 days
Protocol: as §1, with “Compound (100) was administered by oral gavage for eight days at 60 mg/kg/day, 30 mg/kg/day and 10 mg/kg/day to the mouse transgenic familial dysautonomia (FD) model.” left out
The following solutions were prepared daily: Compound (230) in 10% DMA/45% PEG 300/12% EtOH/33% sterile water; and Compound (270) in 10% DMA/45% PEG 300/12% EtOH/33% sterile water.
[…] Six transgenic mice were fed daily with 10% DMA/45% PEG 300/12% EtOH/33% sterile water solution for the same duration. The mice were given food and water ad libitum, and changes in body weights were monitored on a daily basis. On the eighth day the mice were dosed for the last time and after 1 hour were sacrificed and dissected. Plasma, lungs, muscle, liver, heart, brain, kidney, sciatic nerve, and trigeminal nerve were collected. Splicing was evaluating by RT-PCT and IKAP protein was evaluated using Western Blotting.

IKBKAP splicing = conditions: mice, oral, 400 mg/kg/day for 7 days; cited from earlier work
IKAP protein = test: In vivo FD mouse model: IKAP protein in liver by western blot; conditions: 400 mg/kg/day
Protocol: Six transgenic mice were fed daily with 10% DMA/45% PEG 300/12% EtOH/33% sterile water solution for the same duration. The mice were given food and water ad libitum, and changes in body weights were monitored on a daily basis. On the eighth day the mice were dosed for the last time and after 1 hour were sacrificed and dissected. Plasma, lungs, muscle, liver, heart, brain, kidney, sciatic nerve, and trigeminal nerve were collected. Splicing was evaluating by RT-PCT and IKAP protein was evaluated using Western Blotting. Protein extracts were obtained by homogenizing liver or cell pellets in RIPA buffer (Tris-HCl 50 mM, pH 7.4; NaCl 150 mM; NP-40 1%; Sodium deoxycholate 0.5%; SDS 0.1%) containing protease inhibitor cocktail (Sigma), DTT (100 μM) and PMSF (100 μM). Insoluble debris were discarded after centrifugation and protein concentration was determined using Pierce® […] BCA Protein Assay Kit (Thermo Scientific). 50 μg of protein was separated on NuPage 4-12% Bis-Tris Gel (Invitrogen) and transferred into nitrocellulose membrane (Thermo Scientific). […]

[4] = test system: normal IKBKAP mRNA in peripheral blood; conditions: human patients and carriers of familial dysautonomia, preliminary testing; cited from earlier work

With `Clc1nc(NCc2ccncc2)c2cc[nH]c2n1` [(100)] the “presence of compound in brain” value [1] was “evident in the brain”, the “presence of compound in plasma” value [1] was “presence of (100) in the plasma” and the EC (maximum kinetin efficacy) [2] was 2.18 µM. It also gave an Emax [2] of 235%, an activation at 0.08 µM [3] of 22.6% and an activation at 0.8 µM [3] of 62.1%.
In the case of `COc1nc2c(NCc3nccs3)nc(Cl)nc2[nH]1` [(230)], the “inclusion of exon 20 in C57BI6-FD mouse tissues (FIGS. 1A-6)” value (IKBKAP exon 20 inclusion) is reported as “useful for improving inclusion of exon 20”, the EC (maximum kinetin efficacy) [2] is reported as 1.5 µM and the Emax [2] is reported as 216%. The activation at 0.08 µM [3] was 22.3% and the activation at 0.8 µM [3] was 70%.
In the case of `FC(F)(F)COc1nc2c(NCc3ccco3)nc(Cl)nc2[nH]1` [(270)], the “inclusion of exon 20 in C57BI6-FD mouse tissues (FIGS. 1A-6)” value (IKBKAP exon 20 inclusion) is reported as “useful for improving inclusion of exon 20”, the EC (maximum kinetin efficacy) [2] is reported as 0.59 µM and the Emax [2] is reported as 218%. For the same compound, the activation at 0.08 µM [3] was 28.7% and the activation at 0.8 µM [3] was 101%.
`CCOc1nc2c(NCc3ccncn3)nc(Cl)nc2[nH]1` [(320)] gave an EC (maximum kinetin efficacy) [2] of 0.52 µM, an Emax [2] of 208% and an activation at 0.08 µM [3] of 47.1%. For the same compound, the activation at 0.8 µM [3] was 103%.
Compound `Clc1nc(NCc2nccs2)c2nc(OCC3CCO3)[nH]c2n1` (stereo not drawn) [(346)] has an EC (maximum kinetin efficacy) [2] of 1.42 µM, an Emax [2] of 181% and an activation at 0.08 µM [3] of 23.2%. It also gave an activation at 0.8 µM [3] of 58.6%.
`FC(F)COc1nc2c(NCc3nccs3)nc(Cl)nc2[nH]1` [(347)] showed an EC (maximum kinetin efficacy) [2] of 0.77 µM, an Emax [2] of 186% and an activation at 0.08 µM [3] of 18.3%. For the same compound, the activation at 0.8 µM [3] was 72%.
Work on `Clc1nc(NCc2nccs2)c2nc(OCc3cscn3)[nH]c2n1` [(348)] yielded an EC (maximum kinetin efficacy) [2] of 0.7 µM, an Emax [2] of 171% and an activation at 0.08 µM [3] of 49%. The activation at 0.8 µM [3] was 102%.
Compound `FC(F)COc1nc2c(NCc3ccncn3)nc(Cl)nc2[nH]1` [(349)] has an EC (maximum kinetin efficacy) [2] of 0.29 µM, an Emax [2] of 227% and an activation at 0.08 µM [3] of 27.1%. For the same compound, the activation at 0.8 µM [3] was 95.3%.
In the case of `FC1(F)CC(COc2nc3c(NCc4nccs4)nc(Cl)nc3[nH]2)C1` [(362)], the EC (maximum kinetin efficacy) [2] is reported as 0.22 µM, the Emax [2] is reported as 250% and the activation at 0.08 µM [3] is reported as 63.8%. The activation at 0.8 µM [3] was 105%.
In the case of `Clc1nc(NCc2cscn2)c2cc[nH]c2n1` [(372)], the EC (maximum kinetin efficacy) [2] is reported as 3.71 µM, the Emax [2] is reported as 126% and the activation at 0.08 µM [3] is reported as 13.4%. For the same compound, the activation at 0.8 µM [3] was 48.7%.
Compound `FCCn1ncc2c(NCc3ccco3)nc(Cl)nc21` [Example 12, 6-Chloro-1-(2-fluoroethyl)-N-(furan-2-ylmethyl)-1H-pyrazolo[3,4-d]pyrimidin-4-amine] has a melting point of 125 to 128 °C.
For `c1coc(CNc2ncnc3nc[nH]c23)c1` [kinetin, N^6-furfuryladenine, reference compound], the splicing in kidney (IKBKAP exon 20 inclusion; 400 mg/kg/day) is listed as “no significant changes in splicing”, the splicing in brain (IKBKAP exon 20 inclusion; 400 mg/kg/day, 8 days of treatment) is listed as “no significant change” and the “IKBKAP splicing in vivo in certain tissues, including the brain” value (IKBKAP splicing) is listed as “improve IKBKAP splicing in vivo”. For the same compound, the “level of the IKAP protein in liver” value (IKAP protein) was “no significant changes”, the “normal IKBKAP mRNA in peripheral blood” value [4] was “increased normal IKBKAP mRNA in peripheral blood” and the activation at 200 µM ([3]; 200 μM (kinetin control)) was 100%.
